# According to patent US6667040B2, “Bovine footrot treatment and prevention” (University Technologies International, Inc., priority 1997, dated 2003):
# Columns and labels:
# Format in all cases: cell-based
# [1] = tested on: Isolates of Porphyromonas levii; assay: Penicillin G susceptibility of Porphyromonas levii isolates
# [2] = tested on: Prevotella intermedia (14-7); assay: Penicillin G disc diffusion susceptibility test
# [3] = tested on: Prevotella intermedia (8-2); assay: Penicillin G disc diffusion susceptibility test; conditions: with regrowth
# [4] = tested on: Bacteroides fragilis (7-6); assay: Penicillin G disc diffusion susceptibility test
# [5] = tested on: Prevotella intermedia (5-2); assay: Penicillin G disc diffusion susceptibility test; conditions: with regrowth
# [6] = disc with 10 units penicillin G
compound,measurement,setting,value
CC1(C)S[C@@H]2[C@H](NC(=O)Cc3ccccc3)C(=O)N2[C@H]1C(=O)O [penicillin G],susceptibility to penicillin G,[1],sensitive
same,P2 zone of inhibition,[2]; disc with 2 units penicillin G,34 (with mm
same,regrowth within P2 zone of inhibition,"[2]; disc with 2 units penicillin G, regrowth around the disc",22 mm regrowth)
same,P10 zone of inhibition,[2]; [6],38 mm
same,regrowth within P10 zone of inhibition,"[2]; disc with 10 units penicillin G, regrowth around the disc",23 mm
same,P2 zone of inhibition,[3]; disc with 2 units penicillin G,27 mm
same,P10 zone of inhibition,[3]; [6],35 (with regrowth) mm
same,susceptibility to penicillin,[4]; disc diffusion,clearly resistant
same,P2 zone of inhibition,[4]; disc with 2 units penicillin G,0 mm
same,P10 zone of inhibition,[4]; [6],0 mm
same,P2 zone of inhibition,[5]; disc with 2 units penicillin G,22 mm
same,P10 zone of inhibition,[5]; [6],28 (with regrowth) mm
